{"source": "patent US9532990B2", "about": "(Zhejiang DTRM Biopharma Co. Ltd., priority 2014, dated 2017)", "key": {"TMD-8 cells": {"system": "TMD-8 cells", "test": "Inhibition assay of tumor cell activity (cell viability)", "format": "cell-based, human", "details": "single agent, 48 hours, AVG", "protocol": "Inhibition Assay of Tumor Cell Activity:\nTumor cells (TMD-8, DoHH2 and WSU-DLCL2) were transferred and attached to 96-well plates. After one night, blank buffer and selected concentrations (0.01 nM-100 μM) of the test compound solution were added. After 48 hours incubation, CellTiter-Go was added to lyse the cells. Recording luminescent signal and calculate the percent inhibition of cell viability.\nTMD-8 is a sensitive human diffuse large B-cell lymphoma cell line, and DoHH2 is a more difficult to treat human follicular lymphoma cell line, while WSU-DLCL2 is a multi-drug resistant (MDR) human non-Hodgkin's lymphoma cell line. Drug combination therapies provided better efficacies in all three tumor models than single targeted agent alone."}, "[1]": {"test": "Pharmacokinetic study in male SD rats", "format": "in vivo", "details": "rat, plasma", "protocol": "A pharmacokinetic study in male SD rats: Male SD rats for pharmacokinetic study within 24 hours were divided into two groups: intravenous administration and oral administration. Each group has three animals. For group of intravenous administration, blood samples were collected at pre-dose, 0.0833, 0.167, 0.5, 1, 2, 4, 8, 24 h post-dose; for group of oral administration, blood samples were collected at pre-dose, 0.167, 0.5, 1, 2, 4, 8, 24 h post-dose. After blood collection, HPLC-MS/MS was applied to determine plasma concentrations of the compound."}, "[2]": {"test": "Pharmacokinetic study in Beagle dogs", "format": "in vivo", "details": "dog, plasma", "protocol": "[…] Each group has three animals. For group of intravenous administration, blood samples were collected at pre-dose, 0.033, 0.083, 0.25, 0.5, 1, 3, 6, 9, 24 h post-dose; for group of oral administration, blood samples were collected at pre-dose, 0.083, 0.25, 0.5, 1, 3, 6, 9, 24 h post-dose. After blood collection, HPLC-MS/MS was applied to determine plasma concentrations of the compound."}, "[3]": {"test": "Toxicokinetic (TK) study in rats, 28-day", "format": "in vivo, rat", "details": "for Cmax / Tmax / AUC(0-t): rat, in vivo; for AUC(0-t): read-out: AUC0-24 h"}, "TMD-8 lymphoma xenograft": {"system": "TMD-8 lymphoma xenograft", "test": "TMD-8 lymphoma xenograft SCID mouse model", "format": "in vivo", "details": "BID; for Antitumor effect: Oral", "protocol": "Compounds (Compounds 45 and others) alone and its combinations were evaluated against tumor growth in xenograft models in female CB-17 SCID mice. The TMD-8, DoHH2, WSU-DLCL2 tumor cells were maintained in vitro as a suspension culture in RPMI-1640 medium supplemented with 10% heat inactivated fetal calf serum at 37° C. in an atmosphere of 5% CO2 in air. The tumor cells were routinely subcultured twice weekly. The cells growing in an exponential growth phase were harvested and counted for tumor inoculation. Each mouse was inoculated subcutaneously at the right flank with the tumor cells (10×10^6) in 0.2 ml of PBS with Matrigel (1:1) for tumor development. The treatments were started after the average tumor size reached approximately 100-200 mm^3. Each group consisted of 6-10 tumor-bearing mice. The testing article (vehicle, compound or combination) was orally administrated to the mice according to the predetermined doses for 14-days or 21-days. Animal body weight and tumor volume were measured every 2-or 3-days throughout the treatment."}, "[4]": {"test": "Toxicity and toxicokinetic studies, 28-day rat and dog", "details": "28-day rat and dog studies", "excerpt": "Toxicity and toxicokinetic (TK) studies of the compounds can be performed by well known methods."}, "[5]": {"details": "IV, 2 mg/kg, mean, read-out: Vdss"}, "[6]": {"details": "female, 40 mg/kg, Study Day 1, Female"}, "[7]": {"details": "female, 40 mg/kg, Study Day 28, Female"}, "[8]": {"details": "female, 100 mg/kg, Study Day 1, Female"}, "[9]": {"details": "female, 100 mg/kg, Study Day 28, Female"}, "[10]": {"details": "female, 200 mg/kg, Study Day 1, Female"}, "[11]": {"details": "female, 200 mg/kg, Study Day 28, Female"}, "[12]": {"details": "male, 40 mg/kg, Study Day 1, Male"}, "[13]": {"details": "male, 40 mg/kg, Study Day 28, Male"}, "[14]": {"details": "male, 100 mg/kg, Study Day 1, Male"}, "[15]": {"details": "male, 100 mg/kg, Study Day 28, Male"}, "[16]": {"details": "male, 200 mg/kg, Study Day 1, Male"}, "[17]": {"details": "male, 200 mg/kg, Study Day 28, Male"}}, "data": [{"smiles": "C=CC(=O)N1CC[C@@H](n2nc(-c3ccc(Oc4c(F)c(F)cc(F)c4F)cc3F)c3c(N)ncnc32)C1", "note": "[Compound 45, 1-((R)-3-(4-amino-3-(2-fluoro-4-(2,3,5,6-tetrafluorophenoxy)phenyl)-1H-pyrazolo[3,4-d]pyrimidin-1-yl)pyrrolidin-1-yl)prop-2-en-1-one]", "values": [{"measurement": "Inh % TMD-8 cell viability", "setting": "TMD-8 cells; 0.01 μM", "result": 51.66, "unit": "%"}, {"measurement": "Inh % TMD-8 cell viability", "setting": "TMD-8 cells; 0.1 μM", "result": 52.40, "unit": "%"}, {"measurement": "Inh % TMD-8 cell viability", "setting": "TMD-8 cells; 1 uM", "result": 55.05, "unit": "%"}, {"measurement": "AUC(0-inf)", "setting": "[1]; IV, 2 mg/kg, mean", "result": 1740, "unit": "ng·h/mL"}, {"measurement": "AUC(0-t)", "setting": "[1]; IV, 2 mg/kg, mean", "result": 1740, "unit": "ng·h/mL"}, {"measurement": "C0", "setting": "[1]; IV, 2 mg/kg, mean", "result": 1390, "unit": "ng/mL"}, {"measurement": "clearance", "setting": "[1]; IV, 2 mg/kg, mean", "result": 20.2, "unit": "mL/min/kg"}, {"measurement": "half-life", "setting": "[1]; IV, 2 mg/kg, mean", "result": 0.787, "unit": "h"}, {"measurement": "Vd", "setting": "[1]; [5]", "result": 1.61, "unit": "L/kg"}, {"measurement": "bioavailability", "setting": "[1]; PO, 10 mg/kg", "result": 37.1, "unit": "%"}, {"measurement": "AUC(0-inf)", "setting": "[1]; PO, 10 mg/kg, mean", "result": 3260, "unit": "ng·h/mL"}, {"measurement": "AUC(0-t)", "setting": "[1]; PO, 10 mg/kg, mean", "result": 3230, "unit": "ng·h/mL"}, {"measurement": "Cmax", "setting": "[1]; PO, 10 mg/kg, mean", "result": 641, "unit": "ng/mL"}, {"measurement": "Tmax", "setting": "[1]; PO, 10 mg/kg, mean", "result": 1.33, "unit": "h"}, {"measurement": "half-life", "setting": "[1]; PO, 10 mg/kg, mean", "result": 1.71, "unit": "h"}, {"measurement": "AUC(0-inf)", "setting": "[2]; IV, 2 mg/kg, mean", "result": 987, "unit": "ng·h/mL"}, {"measurement": "AUC(0-t)", "setting": "[2]; IV, 2 mg/kg, mean", "result": 977, "unit": "ng·h/mL"}, {"measurement": "C0", "setting": "[2]; IV, 2 mg/kg, mean", "result": 663, "unit": "ng/mL"}, {"measurement": "clearance", "setting": "[2]; IV, 2 mg/kg, mean", "result": 34.6, "unit": "mL/min/kg"}, {"measurement": "half-life", "setting": "[2]; IV, 2 mg/kg, mean", "result": 2.27, "unit": "h"}, {"measurement": "Vd", "setting": "[2]; [5]", "result": 4.24, "unit": "L/kg"}, {"measurement": "bioavailability", "setting": "[2]; PO, 5 mg/kg", "result": 26.2, "unit": "%"}, {"measurement": "AUC(0-inf)", "setting": "[2]; PO, 5 mg/kg, mean", "result": 574, "unit": "ng·h/mL"}, {"measurement": "AUC(0-t)", "setting": "[2]; PO, 5 mg/kg, mean", "result": 650, "unit": "ng·h/mL"}, {"measurement": "Cmax", "setting": "[2]; PO, 5 mg/kg, mean", "result": 189, "unit": "ng/mL"}, {"measurement": "Tmax", "setting": "[2]; PO, 5 mg/kg, mean", "result": 1.17, "unit": "h"}, {"measurement": "half-life", "setting": "[2]; PO, 5 mg/kg, mean", "result": 2.92, "unit": "h"}, {"measurement": "AUC compared with ibrutinib", "setting": "[3]; TK data", "result": "significantly higher than that of ibrutinib"}, {"measurement": "Cmax", "setting": "[3]; [6]", "result": 2660, "unit": "ng/mL"}, {"measurement": "Tmax", "setting": "[3]; [6]", "result": 1, "unit": "h"}, {"measurement": "AUC(0-t)", "setting": "[3]; [6]", "result": 17300, "unit": "ng·h/mL"}, {"measurement": "Cmax", "setting": "[3]; [7]", "result": 2970, "unit": "ng/mL"}, {"measurement": "Tmax", "setting": "[3]; [7]", "result": 1, "unit": "h"}, {"measurement": "AUC(0-t)", "setting": "[3]; [7]", "result": 17300, "unit": "ng·h/mL"}, {"measurement": "Cmax", "setting": "[3]; [8]", "result": 3700, "unit": "ng/mL"}, {"measurement": "Tmax", "setting": "[3]; [8]", "result": 4, "unit": "h"}, {"measurement": "AUC(0-t)", "setting": "[3]; [8]", "result": 28900, "unit": "ng·h/mL"}, {"measurement": "Cmax", "setting": "[3]; [9]", "result": 3830, "unit": "ng/mL"}, {"measurement": "Tmax", "setting": "[3]; [9]", "result": 1, "unit": "h"}, {"measurement": "AUC(0-t)", "setting": "[3]; [9]", "result": 29600, "unit": "ng·h/mL"}, {"measurement": "Cmax", "setting": "[3]; [10]", "result": 4680, "unit": "ng/mL"}, {"measurement": "Tmax", "setting": "[3]; [10]", "result": 4, "unit": "h"}, {"measurement": "AUC(0-t)", "setting": "[3]; [10]", "result": 65200, "unit": "ng·h/mL"}, {"measurement": "Cmax", "setting": "[3]; [11]", "result": 5490, "unit": "ng/mL"}, {"measurement": "Tmax", "setting": "[3]; [11]", "result": 8, "unit": "h"}, {"measurement": "AUC(0-t)", "setting": "[3]; [11]", "result": 60200, "unit": "ng·h/mL"}, {"measurement": "Cmax", "setting": "[3]; [12]", "result": 2160, "unit": "ng/mL"}, {"measurement": "Tmax", "setting": "[3]; [12]", "result": 2, "unit": "h"}, {"measurement": "AUC(0-t)", "setting": "[3]; [12]", "result": 13700, "unit": "ng·h/mL"}, {"measurement": "Cmax", "setting": "[3]; [13]", "result": 2090, "unit": "ng/mL"}, {"measurement": "Tmax", "setting": "[3]; [13]", "result": 2, "unit": "h"}, {"measurement": "AUC(0-t)", "setting": "[3]; [13]", "result": 15400, "unit": "ng·h/mL"}, {"measurement": "Cmax", "setting": "[3]; [14]", "result": 2740, "unit": "ng/mL"}, {"measurement": "Tmax", "setting": "[3]; [14]", "result": 2, "unit": "h"}, {"measurement": "AUC(0-t)", "setting": "[3]; [14]", "result": 21700, "unit": "ng·h/mL"}, {"measurement": "Cmax", "setting": "[3]; [15]", "result": 3990, "unit": "ng/mL"}, {"measurement": "Tmax", "setting": "[3]; [15]", "result": 2, "unit": "h"}, {"measurement": "AUC(0-t)", "setting": "[3]; [15]", "result": 30300, "unit": "ng·h/mL"}, {"measurement": "Cmax", "setting": "[3]; [16]", "result": 4220, "unit": "ng/mL"}, {"measurement": "Tmax", "setting": "[3]; [16]", "result": 2, "unit": "h"}, {"measurement": "AUC(0-t)", "setting": "[3]; [16]", "result": 37600, "unit": "ng·h/mL"}, {"measurement": "Cmax", "setting": "[3]; [17]", "result": 4540, "unit": "ng/mL"}, {"measurement": "Tmax", "setting": "[3]; [17]", "result": 2, "unit": "h"}, {"measurement": "AUC(0-t)", "setting": "[3]; [17]", "result": 45100, "unit": "ng·h/mL"}, {"measurement": "Antitumor effect", "setting": "TMD-8 lymphoma xenograft; 5 mg/kg, 21 days (FIG. 2)", "result": 33, "unit": "%"}, {"measurement": "Antitumor effect", "setting": "TMD-8 lymphoma xenograft; 10 mg/kg, 14 days (FIG. 1)", "result": 64, "unit": "%"}, {"measurement": "Antitumor effect", "setting": "TMD-8 lymphoma xenograft; 30 mg/kg, 14 days (FIG. 1)", "result": 82, "unit": "%"}, {"measurement": "Antitumor effect", "setting": "TMD-8 lymphoma xenograft; 90 mg/kg, 14 days (FIG. 1)", "result": 93, "unit": "%"}, {"measurement": "TMD-8 tumor growth suppression", "setting": "TMD-8 lymphoma xenograft; multiple doses, p.o., 14 days (FIG. 1)", "result": "significant TMD-8 tumor growth suppressions were dose-depended"}, {"measurement": "drug exposure, Day 1 versus Day 28", "setting": "[4]", "result": "no significant difference in drug exposure between Day 1 and Day 28"}, {"measurement": "drug exposure, male versus female", "setting": "[4]", "result": "no significant difference in drug exposure between male and female"}]}]}
